Assay results: paper PMC3491036 (PLoS ONE, 2012)
Like-named read-outs stand apart in the source and are kept apart here.

Assays:
[1] = tested on: XA binding sites; experiment: Displacement of [3H]XA specific binding by competitors; design: species or system rat; details: for displacement of radioactive XA specific binding: compound at 200 µM, displacement by 200 µM XA set at 100%
Description: Membranes (from brain or cell cultures) were incubated for 30 min at 0°C in 50 mM Pipes buffer, pH 7.4 in the presence of [^3H]-XA (2 µCi per µmole total XA at various concentrations). Non-specific binding was determined with 1 mM non-radioactive XA in the medium. Bound from free ligand was separated by rapid filtration on 25 mm Whatman GF/B filters and washing with incubation buffer (3×3 ml at 0°C). Radioactivity on filters was measured by liquid scintillation counting.
Two approaches were used for screening the pharmacological properties of XA specific binding. First, we tested at rather high concentration (200 µM) a battery of putative ligands for these sites. […] The fact that glutamate displaced not more than 10% of radioactive XA eliminates possible binding of XA on glutamate receptors under our conditions.

[2] = tested on: differentiated NCB-20 cells; experiment: Cell-attached patch-clamp recording; assay type: cell-based, mouse neuroblastoma / Chinese hamster brain cell hybrid
Description: (§1) NCB-20 cells were plated at low density (10^4 cells/dish) in 35-mm dishes and differentiated with 1 mM db-cAMP. The culture medium was replaced twice a week and the cells were used after 5 days in culture. Cells were recorded either in cell-attached or whole-cell configuration of the patch-clamp technique using an Axopatch-B200 amplifier (Axon Instruments, CA, USA) in its voltage-clamp mode. […] Junction potentials were calculated using the routine procedure in the Clampex software (Axon instruments, CA, USA) and taken into account for current-voltage (I–V) relationships and reversal potential calculation according to the recording configuration.
For cell-attached recording the pipette was filled with a medium containing (in mM): N-Methyl-D-Glucamine (NMDG) chloride 140, KCl 1, MgCl2 10, EGTA 5, TEA-Cl 15, HEPES 10, pH = 7.4. To maintain the cell membrane potential close to zero, the recorded cells were continuously superfused with a bath solution containing (in mM): KCl 140, NaCl 1, MgCl2 1, CaCl2 0.5, EGTA-K 1, HEPES 10, D-glucose 10, pH = 7.4. […] Drugs were dissolved in DMSO and diluted in control solutions such that DMSO in the applied solution was diluted by a factor of at least 10^4. Drugs were applied to the recorded cells through a multi-barrel perfusion system, the rapid solution exchanger RCS-160 (Bio-Logic, Grenoble, France). […] The first tube was filled with control solution and was used to maintain a continuous superfusion of the recorded cell between applications. The selected tube was placed in front of the cell by axial rotation of calibrated angles and the application started when the selected tube takes place in front of the cell.
(§2) Data were analyzed offline using the clampfit routine of the Pclamp software package. The given results are means±SEM and statistical significance of the difference between means was determined using one way ANOVA followed by Dunnett's Multiple Comparison test.

[3] = tested on: NCB-20 cells; experiment: Fluo-4 monitoring of [Ca2+]i changes; assay type: cell-based, mouse neuroblastoma / Chinese hamster brain cell hybrid
Description: The method of cellular calcium measurement used was as described previously. Briefly, NCB-20 cells were plated in glass-bottomed culture dishes and incubated at 37°C for four days. […] Then the cells were washed with Krebs for 30 min at room temperature in the dark. All settings of the laser (Argon-Krypton laser, turned to 488 nm), optical filter (BF 530/30) and microscope (Leica TCS-SP confocal inverted microscope) as well as data acquisition were controlled by the LCS (Leica Confocal System) software.
Images were recorded at a frequency of 0.1 Hz. Analysis was performed by defining regions of interest (ROI) in the first image. Values are expressed as the percentage of fluorescence change with respect to control and calculated as F/F 0 (%) (where F is the fluorescence intensity at a given time and F 0 the basal fluorescence intensity at the beginning of the experiment).
The cells were continuously superfused with normal Krebs medium and transiently submitted to the tested drug using a peristaltic pump with a flow rate of 1 ml/min. For each analyzed cell, the mean and the standard deviation (SD) of the F/F 0 of fluorescence were measured during 1–2 min before (base line) and after (signal) drug application and compared. Statistical significance of the difference between means was determined using one way ANOVA followed by Dunnett's Multiple Comparison Test for repeated measurements on absolute levels of fluo-4 fluorescence.

[4] = tested on: differentiated NCB-20 cells; experiment: cells
Description: as §1, §2

[5] = tested on: rat brain synaptosomal membranes; details: read-out: EC50 of GTP-γ-S binding; XA 0.5 to 50 µM, 5 µM GDP, 20 mM MgCl2
Description: The Scintillation Proximity Assay (SPA) of Amersham was used. […] Brain synaptosomal membranes were thus incubated in assay buffer (pH 7.4) containing 20 mM HEPES, 100 mM NaCl, 20 mM MgCl2 with 0.3 nM [^35S]GTP-γ-S and 5 µM GDP for 30 min at room temperature. Non-specific binding was determined in the presence of 200 µM GTP. WGA SPA beads were added and the mixture was incubated at room temperature for a further 30 min. The plates were centrifuged at 1,200 g for 5 min and SPA cpm were determined by scintillation counting.

[6] = tested on: XA binding sites on NCB-20 neuroblastoma cells; experiment: [3H]-XA saturation binding on NCB-20 neuroblastoma cell membranes; design: species or system mouse neuroblastoma / Chinese hamster brain cell hybrid; details: NCB-20 membranes, read-out: dissociation constant (Kd)
Description: (§3) Neurons were scraped into potassium phosphate buffer 50 mM, EDTA 2 mM, pH 6.0 at 0°C. After centrifugation at 2,000 g for 3 min to eliminate nuclei and large fragments, the supernatant was spun down at 15,000 g for 10 min; the pellet was washed with the same buffer and directly used for binding experiments.
(§4) Bound from free ligand was separated by rapid filtration on 25 mm Whatman GF/B filters and washing with incubation buffer (3×3 ml at 0°C). Radioactivity on filters was measured by liquid scintillation counting.

[7] = tested on: 75 transmembrane and soluble receptors, ion channels and monoamine transporters; experiment: Cerep high-throughput profile screening; assay type: binding; details: XA at 10 µM
Description: Secondly, to extend the pharmacological profile of XA, this compound was tested on high-throughput profile screening which involved a collection of 75 transmembrane and soluble receptors, ion channels and monoamine transporters (Cerep, France Laboratories, Poitiers). XA was tested on these collections of proteins at 10 µM concentration.

[8] = tested on: XA binding sites on crude synaptosomal membranes from rat brain; experiment: [3H]-XA saturation and kinetic binding on crude synaptosomal membranes from rat brain
Description: Brains were rapidly extracted from adult male Wistar rats killed by decapitation after being stunned. All the following procedures were done with buffers cooled at 0°C. Brains were homogenized with a motor driven Teflon/glass apparatus in 10 vol (W/V) of sucrose 0.32 M containing potassium phosphate buffer pH 7.2 and 2 mM EDTA. After centrifugation at 1,500 g for 10 min to remove the crude nuclear fraction, the supernatant was spun at 35,000 g for 20 min. The pellet obtained was resuspended in lysis buffer (2 mM EDTA/water pH 6.0 at 0°C, spun at 100,000 g for 20 min). After washing the pellet with potassium phosphate buffer 50 mM, pH 6.0, the crude membrane fraction was directly used for further experiments or stored at −80°C.
as §4

[9] = tested on: XA binding sites on IMR-32 neuroblastoma cells; experiment: [3H]-XA saturation binding on IMR-32 neuroblastoma cell membranes; design: species or system human; details: IMR-32 membranes, read-out: dissociation constant (Kd)
Description: Cultures were maintained for one week at 37°C in the presence of CO2 (5%).
as §3, §4

[10] = peripheral administration; cited from earlier work
[11] = tested on: various cell cultures; details: concentration of 10 µM; cited from earlier work
[12] = frequency histogram of the illustrated XA response
[13] = illustrated response to 10 µM XA, NMDG-Cl pipette, ramp protocol

NCCCC(=O)O [GABA]
displacement of radioactive XA specific binding [1]: very low potency

O=C(O)c1cc(O)c2c(Cl)cc(Cl)c(O)c2n1 [NCS-482]
IC50 [1]: 0.35 µM | functional properties in patch-clamp experiments [2]: agonistic

Nc1cccc2c(O)cc(C(=O)O)nc12 [NCS-486]
IC50 [1]: 14.6 µM | fluo-4 fluorescence (F/F0) ([3]; 100 µM NCS-486 applied alone, 5 min): 83.9±2.7% | fluo-4 fluorescence (F/F0) ([3]; 100 µM NCS-486 with 25 µM XA, 5 min): 86.9±0.7% | functional properties in patch-clamp experiments [2]: antagonistic | reduction of the agonist-induced current-response ([2]; NCS-486 20 µM co-applied with 5 µM XT-21): 86.1±5.0% | reduction of the agonist-induced current-response ([2]; NCS-486 20 µM co-applied with 10 µM XA): 88.3±3.8% | reduction of the agonist-induced current-response ([2]; NCS-486 20 µM co-applied with 18 µM NCS-482): 88.7±3.2% | effect when applied alone ([2]; NCS-486 20 µM, 6 cells tested): did not have any effect by itself

O=C(O)c1cc(O)c2cccc(O)c2n1 [XA, Xanthurenic acid]
IC50 [1]: 0.3 µM | Hill coefficient ([4]; Hill fit of dose-response): 3.5 | maximal conductance ([4]; Hill fit of dose-response): 12.5 nS | cells tested showing an XA induced response ([4]; XA 1 to 30 µM, whole-cell): about 71% | reversal potential of XA-induced current ([4]; high chloride pipette medium): −3.3±4.0 mV | reversal potential of XA-induced current ([4]; low chloride pipette medium): −3.8±2.5 mV | EC50 ([4]; read-out: EC50 of XA activated conductance): 11.7 ± 2.2 µM | EC50 [5]: 2 ± 1.9 µM | Kd [6]: 1.3 µM | persistence of signal before returning to basal levels ([3]; 10 µM XA): about 5 min | start of signal after XA application ([3]; 10 µM XA): about 1 min | intensity of fluo-4 signal above basal levels ([3]; 10 µM XA, 6 min application): 60–80% | fluo-4 fluorescence (F/F0) ([3]; 25 µM XA after 5 min washout of NCS-486): 134.9±6.5% | mean apparent maximum of the response (F/F0) ([3]; XA 1 to 10 µM): about 157±3% | EC50 ([3]; read-out: EC50 of first (activation) phase of Ca2+ response): 1.4 µM | competition on the binding of specific ligands of the 75 proteins [7]: No significant competitive properties | effect on adenosine, benzodiazepine, dopamine, GABA, canabinoid, histamine, muscarinic, opioid, purinergic and serotonin receptors [7]: no effect | Kob ([8]; [3H]-XA 0.2 µM, pH 7.4, 0°C): 1.44 min⁻¹ | Kd ([8]; from Kob and Koff, read-out: calculated Kd (from rate constants)): 1.4 µM | Kd ([8]; saturation experiments, crude brain synaptosomal membranes, pH 7.4, 0°C, read-out: dissociation constant (Kd)): 0.74 µM | Kd [9]: 0.75 µM | brain penetration [10]: penetrates the brain freely | toxicity in cell cultures [11]: apoptotic-like cell death | Er1, global mean value ([2]; all XA responses, mean ± SEM): −32.2±4.0 mV | Er2, global mean value ([2]; all XA responses, mean ± SEM): −13.9±1.1 mV | Er3, global mean value ([2]; all XA responses, mean ± SEM): −1.0±0.6 mV | Er4, global mean value ([2]; all XA responses, mean ± SEM): 11.5±0.8 mV | Er5, global mean value ([2]; all XA responses, mean ± SEM): 31.1±2.0 mV | Er1, mean of Gaussian fit [2, 12]: −23.2 mV | Er2, mean of Gaussian fit [2, 12]: −9.6 mV | Er3, mean of Gaussian fit [2, 12]: 0.8 mV | Er4, mean of Gaussian fit [2, 12]: 12.6 mV | Er5, mean of Gaussian fit [2, 12]: 20.3 mV | reversal potential (Er), position 1 (initial value) [2, 13]: −9 mV | reversal potential (Er), position 2 [2, 13]: about 14 mV | reversal potential (Er), position 3 [2, 13]: ~25 mV | reversal potential (Er), position 4 [2, 13]: ~−1 mV | reversal potential (Er), position 5 [2, 13]: ~−26 mV

O=C(O)c1cc(O)c2cc(-c3ccccc3)cc(O)c2n1 [XT-21]
IC50 [1]: 4.6 µM | functional properties in patch-clamp experiments [2]: agonistic | response amplitude relative to 10 µM XA ([2]; XT-21 5 µM, cell-attached): about 2.5 fold | response amplitude relative to 18 µM NCS-482 ([2]; XT-21 5 µM, cell-attached): ~1.5 fold

O=C(O)c1cc(=O)c2ccccc2[nH]1 [kynurenic acid]
displacement of radioactive XA specific binding [1]: 30%

O=C(O)c1ccccn1 [picolinic acid]
IC50 [1]: 41 ± 5 µM | displacement of radioactive XA specific binding [1]: 60%

O=C(O)c1cccnc1C(=O)O [quinolinic acid]
displacement of radioactive XA specific binding [1]: 40%
